From ChEMBL document CHEMBL4393660, “New pyrazole derivatives: Synthesis, anti-inflammatory activity, cycloxygenase inhibition assay and evaluation of mPGES” (Eur J Med Chem, 2019)
Activity calls are given as the source filed them. The calls are words filed in the database; no cut-off is given here.

Tests used:
[1] = target: Prostaglandin G/H synthase 1 (Homo sapiens, UniProt P23219); assay: (§1) Inhibition of human recombinant COX1 assessed as reduction in PGF2alpha formation using arachidonic acid as substrate preincubated with enzyme for 10 mins followed by substrate addition for 30 secs and measured after 1 hr by microplate reader based enzyme immunoassay
Sequence of Prostaglandin G/H synthase 1 (P23219 whole entry): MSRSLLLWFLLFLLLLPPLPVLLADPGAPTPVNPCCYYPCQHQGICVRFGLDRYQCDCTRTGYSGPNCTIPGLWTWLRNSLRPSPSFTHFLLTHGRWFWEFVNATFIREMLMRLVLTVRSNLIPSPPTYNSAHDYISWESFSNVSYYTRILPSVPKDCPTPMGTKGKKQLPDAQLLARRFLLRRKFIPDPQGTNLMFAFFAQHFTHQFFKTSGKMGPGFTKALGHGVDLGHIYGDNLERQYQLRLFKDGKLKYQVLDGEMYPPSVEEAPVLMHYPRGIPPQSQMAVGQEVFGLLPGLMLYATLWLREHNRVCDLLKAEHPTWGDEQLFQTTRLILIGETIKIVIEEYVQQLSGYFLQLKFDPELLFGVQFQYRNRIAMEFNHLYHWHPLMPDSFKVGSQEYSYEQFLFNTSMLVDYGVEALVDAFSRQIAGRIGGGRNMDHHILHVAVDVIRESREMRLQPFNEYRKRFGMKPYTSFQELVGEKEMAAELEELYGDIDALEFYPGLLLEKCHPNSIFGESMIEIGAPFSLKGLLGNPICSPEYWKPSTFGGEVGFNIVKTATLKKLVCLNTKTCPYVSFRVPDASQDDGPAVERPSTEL

[2] = target: T1, Prostaglandin G/H synthase 2 (Homo sapiens, UniProt P35354); assay: Inhibition of human recombinant COX-2 assessed as reduction in PGF2alpha formation using arachidonic acid as substrate preincubated with enzyme for 10 mins followed by substrate addition for 30 secs and measured after 1 hr by microplate reader based enzyme immunoassay
T1 sequence (P35354 whole entry): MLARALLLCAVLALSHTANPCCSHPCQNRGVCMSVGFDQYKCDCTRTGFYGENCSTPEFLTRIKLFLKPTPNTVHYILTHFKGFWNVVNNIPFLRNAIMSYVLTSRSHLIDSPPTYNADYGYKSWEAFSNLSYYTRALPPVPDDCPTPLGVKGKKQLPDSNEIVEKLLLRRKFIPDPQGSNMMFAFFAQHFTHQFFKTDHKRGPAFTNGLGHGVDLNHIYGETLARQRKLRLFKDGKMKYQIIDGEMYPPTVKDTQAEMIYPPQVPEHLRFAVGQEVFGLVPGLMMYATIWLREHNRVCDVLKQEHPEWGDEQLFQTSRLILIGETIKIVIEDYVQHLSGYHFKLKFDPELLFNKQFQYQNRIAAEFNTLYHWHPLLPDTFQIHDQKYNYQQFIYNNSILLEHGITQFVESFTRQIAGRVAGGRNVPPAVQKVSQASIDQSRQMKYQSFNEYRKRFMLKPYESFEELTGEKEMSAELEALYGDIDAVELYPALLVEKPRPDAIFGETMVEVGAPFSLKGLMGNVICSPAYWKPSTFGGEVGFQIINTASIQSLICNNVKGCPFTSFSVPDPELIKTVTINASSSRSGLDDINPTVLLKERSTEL

Homo sapiens = organism: Homo sapiens; assay: as §1, with “Selectivity index, ratio” for “Inhibition”, “of IC50 for” for “of”, “COX1 to IC50 for human recombinant COX-2” for “COX1”
Rattus norvegicus [3] = assay: Anti-inflammatory activity against carrageenan-induced albino rat paw edema model assessed as inhibition of microsomal PGE2 synthase expression in plasma at 10 umol/kg, sc treated 1 hr prior to carrageenan challenge measured after 2 hrs by microplate reader based monoclonal sandwich ELISA assay; type: functional
Rattus norvegicus [4] = assay: Anti-inflammatory activity against carrageenan-induced albino rat paw edema model assessed as inhibition of PGE2 production in plasma at 10 umol/kg, sc treated 1 hr prior to carrageenan challenge measured after 2 hrs by microplate reader based enzyme immunoassay relative to control; type: functional
[5] = Toxicity in carrageenan-induced albino rat paw edema model assessed as Inhibition of cytosolic PGE2 synthase expression in plasma at 10 umol/kg, sc treated 1 hr prior to carrageenan challenge measured after 2 hrs by microplate reader based monoclonal sandwich ELISA assay; type: organism-based; settings: in vivo
Rattus norvegicus [6] = assay: Anti-inflammatory activity against carrageenan-induced albino rat paw edema model assessed as inhibition of carrageenan-induced right hind paw edema at 10 umol/kg, sc treated 1 hr prior to carrageenan challenge and measured immediately after carrageenan treatment by plethysmometer relative to control; type: functional
Rattus norvegicus [7] = assay: Anti-inflammatory activity against carrageenan-induced albino rat paw edema model assessed as inhibition of carrageenan-induced right hind paw edema at 10 umol/kg, sc treated 1 hr prior to carrageenan challenge and measured at 1 hr after carrageenan treatment by plethysmometer relative to control; type: functional
Rattus norvegicus [8] = assay: Anti-inflammatory activity against carrageenan-induced albino rat paw edema model assessed as inhibition of carrageenan-induced right hind paw edema at 10 umol/kg, sc treated 1 hr prior to carrageenan challenge and measured at 3 hrs after carrageenan treatment by plethysmometer relative to control; type: functional
Rattus norvegicus [9] = assay: Anti-inflammatory activity against carrageenan-induced albino rat paw edema model assessed as inhibition of carrageenan-induced right hind paw edema at 10 umol/kg, sc treated 1 hr prior to carrageenan challenge and measured at 2 hrs after carrageenan treatment by plethysmometer relative to control; type: functional
Rattus norvegicus [10] = assay: Anti-inflammatory activity against carrageenan-induced albino rat paw edema model assessed as inhibition of carrageenan-induced right hind paw edema at 10 umol/kg, sc treated 1 hr prior to carrageenan challenge and measured at 6 hrs after carrageenan treatment by plethysmometer relative to control; type: functional
Rattus norvegicus [11] = assay: Ratio of inhibition of microsomal PGE2 synthase expression to inhibition of cytosolic PGE2 synthase expression in plasma of carrageenan-induced albino rat paw edema model at 10 umol/kg, sc treated 1 hr prior to carrageenan challenge measured after 2 hrs by microplate reader based monoclonal sandwich ELISA assay

Compound	IC50 [1] [nM]	IC50 [2] [nM]	Ratio IC50 (Homo sapiens)	inhibition in vivo at 10 µmol/kg (Rattus norvegicus [3]) [%]	inhibition in vivo at 10 µmol/kg (Rattus norvegicus [4]) [%]	inhibition (INH) [5] [%]	inhibition in vivo at 10 µmol/kg (Rattus norvegicus [6]) [%]	inhibition in vivo at 10 µmol/kg (Rattus norvegicus [7]) [%]	inhibition in vivo at 10 µmol/kg (Rattus norvegicus [8]) [%]	inhibition in vivo at 10 µmol/kg (Rattus norvegicus [9]) [%]	inhibition in vivo at 10 µmol/kg (Rattus norvegicus [10]) [%]	fold change (FC) (Rattus norvegicus [11])	inhibition (Rattus norvegicus [6])	inhibition (Rattus norvegicus [7])
COc1ccc(/C=N/c2c(C#N)cnn2-c2ccc(S(N)(=O)=O)cc2)cc1OC	163	43.7	3.72	–	–	–	–	–	–	–	–	–	–	–
N#Cc1cnn(-c2ccc(S(N)(=O)=O)cc2)c1NC(=O)CN1CCOCC1	64.7	34.2	1.89	–	–	–	–	–	–	–	–	–	–	–
N#Cc1cnn(-c2ccc(S(N)(=O)=O)cc2)c1/N=C/c1ccccc1	205	83	2.46	–	–	–	–	–	–	–	–	–	–	–
CC(Cl)C(=O)Nc1c(C#N)cnn1-c1ccc(S(N)(=O)=O)cc1 (configuration not stated)	507	108	4.67	–	–	–	–	–	–	–	–	–	–	–
N#Cc1cnn(-c2ccc(S(N)(=O)=O)cc2)c1NC(=O)CCl	104	19.9	5.24	80.7	67.5	31.55	13.6	16.7	40.1	26.5	46	2.5	–	–
CC(=O)Nc1c(C#N)cnn1-c1ccc(S(=O)(=O)NC(C)=O)cc1	879	61.2	14.3	80	65.3	31.08	0	9.26	35	17.5	44.3	–	–	–
N#Cc1cnn(-c2ccc(S(N)(=O)=O)cc2)c1NC(=O)CCN1CCOCC1	876	39.4	22.2	74.1	76.2	44.43	–	2.04	39.5	27.5	44	1.5	inactive	–
CC(C(=O)Nc1c(C#N)cnn1-c1ccc(S(N)(=O)=O)cc1)N1CCOCC1 (configuration not stated)	161	123	1.31	–	–	–	–	–	–	–	–	–	–	–
N#Cc1cnn(-c2ccc(S(N)(=O)=O)cc2)c1/N=C/c1ccc(Br)cc1	116	64.9	1.78	–	–	–	–	–	–	–	–	–	–	–
N#Cc1cnn(-c2ccc(S(N)(=O)=O)cc2)c1/N=C/c1ccc(Cl)cc1	169	190	0.89	–	–	–	–	–	–	–	–	–	–	–
N#Cc1cnn(-c2ccc(S(N)(=O)=O)cc2)c1NC(=O)c1ccccc1	73.3	56.2	1.3	–	–	–	–	–	–	–	–	–	–	–
N#Cc1cnn(-c2ccc(S(N)(=O)=O)cc2)c1NC(=O)CCCl	123	58	2.12	–	–	–	–	–	–	–	–	–	–	–
N#Cc1cnn(-c2ccc(S(N)(=O)=O)cc2)c1/N=C/c1ccc(F)cc1	677	38.7	17.5	74.7	73.9	48.52	–	1.85	36.7	7.94	43	–	inactive	–
Cc1ccc(-c2cc(C(F)(F)F)nn2-c2ccc(S(N)(=O)=O)cc2)cc1 [CELECOXIB]	–	–	–	80	69.6	51.11	6.06	11.1	35	8.99	42.6	–	–	–
COc1ccc(/C=N/c2c(C#N)cnn2-c2ccc(S(N)(=O)=O)cc2)cc1	513	39.1	13.1	80.3	64.4	52.43	–	–	33.6	5.29	42.3	–	inactive	inactive
